In series [1] the target is T1, NanoLuc VHL fusion protein stably expressed in HEK 293 cells (Homo sapiens, UniProt P40337).
T1 construct: expressed in transfected cells
The experiment in a line: VHL HEK-293 BRET Assay (VHL NanoBRET Target Engagement Assay). In kind it is cell-based. The conditions noted are these: for pIC50: HEK293 cells, nanoBRET, geometric mean where more than one measurement, read-out: VHL binding in cells (HEK293 nanoBRET); for Ratio cell permeability shift: ratio of nanoBRET in cells to nanoBRET +Digitonin. On the procedure: The VHL NanoBRET™ Target Engagement Assay analyzes the apparent affinity of test compounds for VHL in cells by competitive displacement of a VHL NanoBRET™ tracer reversibly bound to a NanoLuc® VHL fusion protein stably expressed in the cells.
Test compounds were transferred to the assay plate (384 Well White Non-Binding Corning Assay Plates (Corning-3574)) using an Echo 555 Liquid Handler (Labcyte) in 2.5 nL increments and, as appropriate, intermediate stock concentrations of compounds, in order to prepare a titration series. 50 nL of control compound (10 mM; parental unlabeled VHL antagonist; see structure below) and 50 nL of DMSO (negative control) were dispensed into the appropriate control wells. DMSO was backfilled to a final volume of 50 nL as required. 50 nl per well of 1 mM VHL NanoBRET™ Tracer in DMSO (NanoBRET™ Tracer-PEG2-590 (see structure below)) was transferred into each well using an Echo 555 (ultimately yielding a final concentration of 1 uM). HEK 293 RT VHL-NanoLuc® stable cells were cultured in DMEM High Glucose with Pyruvate, 10% fetal bovine serum, 2 mg/mL of Geneticin Selective Antibiotic (50 mg/ml) and 2 mM HEPES (1 M). Cells were seeded in Opti-MEM (Life Technologies-11058-021), 1.7×10^5 cells/mL, 40 μl per well into the assay plate, centrifuged at 500 rpm for 30 seconds and incubated for 2 hours. Max Signal control wells consisted of DMSO only treated wells. Minimum Signal control wells contained of 10 uM parental unlabeled VHL antagonist (control compound—see structure below). 3× Complete Substrate plus Inhibitor Solution was prepared in Opti-MEM (consists of a 1:166 dilution of NanoBRET™ Nano-Glo® Substrate plus a 1:500 dilution of Extracellular NanoLuc® Inhibitor in Opti-MEM), and 20 ul was dispensed into each well of the 384-well plate and centrifuged at 1000 rpm for 1 minute, then incubated for 2 minutes at room temperature. Background Signal control wells were prepared without tracer for background correction steps.
Plates were read using a PerkinElmer Envision Reader (model 2104-0020) equipped with Luminescence option (Mirror: BRET2 Enh (PE Barcode 659), Emission Filter: Omega 610LP (Barcode 504), 2nd Emission Filter: Umbelliferone 460 (Barcode 207), Measurement height: 6.5 mm, Measurement time: 1 s). The raw BRET ratio values were calculated by dividing the acceptor emission value (610 nm) by the donor emission value (460 nm) for each sample. To correct for background, the BRET ratio in the absence of tracer (average of no-tracer control samples) was subtracted from the BRET ratio of each sample. Raw BRET units were converted to milliBRET units (mBU) by multiplying each raw BRET value by 1,000. The normalized NanoBRET™ signal was calculated relative to the Max Signal control wells (DMSO treated control wells) and the Minimum Signal control wells. Percentage inhibition was calculated relative to the Minimum Signal control and Maximum Signal control wells. IC50 values were derived by four parameter curve fitting using the Robust method.
On the technique in general: Bioluminescence resonance energy transfer reports proximity on the nanometre scale.

Series [2] has as its target T2, VHL (Homo sapiens, UniProt P40337).
T2 construct: expressed in transfected cells
In words: VHL nanoBRET (+Digitonin). The class given is cell-based.

Data on 16 molecules can be found in patent US12643884B2, “1-(2-(4-cyclopropyl-1H-1,2,3-triazol-1-yl)acetyl)-4-hydroxypyrrolidine-2-carboxa|mide derivatives as VHL inhibitors for the treatment of anemia” (Genentech, Inc., priority 2020, dated 2026).

pEC50, pIC50: −log10 of the molar value.

T1 sequence (P40337 whole entry, the tested form may be a part): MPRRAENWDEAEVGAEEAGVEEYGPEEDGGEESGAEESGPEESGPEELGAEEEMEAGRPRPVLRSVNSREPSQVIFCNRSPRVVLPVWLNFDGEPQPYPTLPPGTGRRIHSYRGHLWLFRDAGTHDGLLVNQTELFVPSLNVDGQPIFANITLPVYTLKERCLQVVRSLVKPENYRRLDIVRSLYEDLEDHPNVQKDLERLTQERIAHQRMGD
T1 sequence (Q15370 whole entry partner, the tested form may be a part): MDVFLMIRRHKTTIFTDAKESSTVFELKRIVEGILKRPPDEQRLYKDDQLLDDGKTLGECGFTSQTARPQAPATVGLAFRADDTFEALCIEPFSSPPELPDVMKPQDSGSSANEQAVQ
T1 sequence (Q15369 whole entry partner, the tested form may be a part): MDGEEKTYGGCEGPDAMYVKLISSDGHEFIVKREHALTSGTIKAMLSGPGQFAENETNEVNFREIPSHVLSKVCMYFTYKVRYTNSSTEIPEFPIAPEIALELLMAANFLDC
T2 sequence (P40337 whole entry): as the sequence (P40337 whole entry, the tested form may be a part) above
T2 sequence (Q15370 whole entry partner): as the sequence (Q15370 whole entry partner, the tested form may be a part) above
T2 sequence (Q15369 whole entry partner): as the sequence (Q15369 whole entry partner, the tested form may be a part) above

As to `CNC(=O)[C@@H]1C[C@@H](OC(C)=O)CN1C(=O)[C@@H](n1cc(C2CC2)nn1)C(C)(C)C` [Final product from Example S12, (3R,5S)-1-((S)-2-(4-cyclopropyl-1H-1,2,3-triazol-1-yl)-3,3-dimethylbutanoyl)-5-(methylcarbamoyl)pyrrolidin-3-yl Acetate], in series [1], the pIC50 was 4.20 and the “Ratio cell permeability shift” value is reported as 0.68. Also, the pEC50 (commonly −log10 of the EC50, conventionally taken in molar units) in series [2] is 4.03.

As to `CC(C)(C)[C@@H](C(=O)N1C[C@H](O)C[C@H]1C(=O)NC1CC1)n1cc(C2CC2)nn1` [Final product from Example S13, (2S,4R)—N-cyclopropyl-1-((S)-2-(4-cyclopropyl-1H-1,2,3-triazol-1-yl)-3,3-dimethylbutanoyl)-4-hydroxypyrrolidine-2-carboxamide], in series [1], the pIC50 is 5.01 and the “Ratio cell permeability shift” value was found to be 1.54. In series [2], this molecule gave a pEC50 of 5.20.

On to `CC(C)(C)[C@@H](C(=O)N1C[C@H](O)C[C@H]1C(=O)NCC(F)(F)F)n1cc(C2CC2)nn1` [Final product from Example S14, (2S,4R)-1-((S)-2-(4-cyclopropyl-1H-1,2,3-triazol-1-yl)-3,3-dimethylbutanoyl)-4-hydroxy-N-(2,2,2-trifluoroethyl)pyrrolidine-2-carboxamide], for which, in series [1], the pIC50 is 5.18 and the “Ratio cell permeability shift” value turned out to be 1.24. Moreover, the pEC50 in series [2] is 5.28.

For `CC(C)NC(=O)[C@@H]1C[C@@H](O)CN1C(=O)[C@@H](n1cc(C2CC2)nn1)C(C)(C)C` [Final product from Example S15, (2S,4R)-1-((S)-2-(4-cyclopropyl-1H-1,2,3-triazol-1-yl)-3,3-dimethylbutanoyl)-4-hydroxy-N-isopropylpyrrolidine-2-carboxamide], in series [1], the pIC50 was 5.04 and the “Ratio cell permeability shift” value was found to be 1.52. Besides, the pEC50 in series [2] is 5.22.

With `CC(C)(C)[C@@H](C(=O)N1C[C@H](O)C[C@H]1C(=O)NCCF)n1cc(C2CC2)nn1` [Final product from Example S16, (2S,4R)-1-((S)-2-(4-cyclopropyl-1H-1,2,3-triazol-1-yl)-3,3-dimethylbutanoyl)-N-(2-fluoroethyl)-4-hydroxypyrrolidine-2-carboxamide], in series [1], the pIC50 was 5.61 and the “Ratio cell permeability shift” value was 0.68. Moreover, in series [2], the pEC50 is 5.45.

As for `CCNC(=O)[C@@H]1C[C@@H](O)CN1C(=O)[C@@H](n1cc(C2CC2)nn1)C(C)(C)C` [Final product from Example S17, (2S,4R)-1-((S)-2-(4-cyclopropyl-1H-1,2,3-triazol-1-yl)-3,3-dimethylbutanoyl)-N-ethyl-4-hydroxypyrrolidine-2-carboxamide], in series [1], the pIC50 is 5.38 and the “Ratio cell permeability shift” value was 1.07. Also, in series [2], the pEC50 is 5.41.

With `CC(C)(C)[C@@H](C(=O)N1C[C@H](O)C[C@H]1C(=O)NC1(C(F)(F)F)CC1)n1cc(C2CC2)nn1` [Final product from Example S18, (2S, 4R)-1-((S)-2-(4-cyclopropyl-1H-1,2,3-triazol-1-yl)-3,3-dimethylbutanoyl)-4-hydroxy-N-(1-(trifluoromethyl)cyclopropyl)pyrrolidine-2-carboxamide], in series [1], the pIC50 is 5.30 and the “Ratio cell permeability shift” value was determined as 1. The molecule further had a pEC50 in series [2] of 5.30.

Consider `CNC(=O)[C@@H]1C[C@@H](O)CN1C(=O)[C@H](C(C)C)n1cc(-c2ccco2)nn1` [Final product from Example S19, (2S, 4R)-1-((S)-2-(4-(furan-2-yl)-1H-1,2,3-triazol-1-yl)-3-methylbutanoyl)-4-hydroxy-N-methylpyrrolidine-2-carboxamide], for which, in series [1], the pIC50 is 6.10 and the “Ratio cell permeability shift” value worked out at 0.90. The pEC50 in series [2] was 6.05.

In the case of `CNC(=O)[C@@H]1C[C@@H](O)CN1C(=O)[C@H](C(C)C)n1cc(C2(C)CC2)nn1` [Final product from Example S20, (2S,4R)-4-hydroxy-N-methyl-1-((S)-3-methyl-2-(4-(1-methylcyclopropyl)-1H-1,2,3-triazol-1-yl)butanoyl)pyrrolidine-2-carboxamide], in series [1], the pIC50 is 5.67 and the “Ratio cell permeability shift” value was 1.71. Also, the negative-log EC50 (pEC50) in series [2] was 5.91.

Take `CNC(=O)[C@@H]1C[C@@H](O)CN1C(=O)[C@H](C(C)C)n1cc(C2CCC2)nn1` [Final product from Example S21, (2S,4R)-1-((S)-2-(4-cyclobutyl-1H-1,2,3-triazol-1-yl)-3-methylbutanoyl)-4-hydroxy-N-methylpyrrolidine-2-carboxamide]: in series [1], the pIC50 was 5.55 and the “Ratio cell permeability shift” value is 0.86. The pEC50 in series [2] is 5.48.

Consider `CNC(=O)[C@@H]1C[C@@H](O)CN1C(=O)[C@H](C(C)C)n1cc(C2CCCC2)nn1` [Final product from Example S22, (2S, 4R)-1-[(2S)-2-(4-cyclopentyltriazol-1-yl)-3-methyl-butanoyl]-4-hydroxy-N-methyl-pyrrolidine-2-carboxamide], for which, in series [1], the pIC50 was 5.49 and the “Ratio cell permeability shift” value is 1.15. The molecule further had a pEC50 in series [2] of 5.56.

`CNC(=O)[C@@H]1C[C@@H](O)CN1C(=O)C(=C(C)C)n1cc(C2CC2)nn1` [Final product from Example S27, (2S, 4R)-1-[2-(4-cyclopropyltriazol-1-yl)-3-methyl-but-2-enoyl]-4-hydroxy-N-methyl-pyrrolidine-2-carboxamide]: the “Ratio cell permeability shift” value in series [1] came out at 0.96. The pEC50 in series [2] was 5.31.

Turning to `CNC(=O)[C@@H]1C[C@@H](O)CN1C(=O)[C@H](C(C)C)n1cc(-c2cccs2)nn1` [Final product from Example S28, (2S, 4R)-4-hydroxy-N-methyl-1-((S)-3-methyl-2-(4-(thiophen-2-yl)-1H-1,2,3-triazol-1-yl)butanoyl)pyrrolidine-2-carboxamide], in series [1], the pIC50 is 6.23 and the “Ratio cell permeability shift” value came out at 0.75. The molecule also showed a pEC50 in series [2] of 6.10.

Regarding `CNC(=O)[C@@H]1C[C@@H](O)CN1C(=O)[C@H](C(C)C)n1cc(-c2cnco2)nn1` [Final product from Example S32, (2S, 4R)-4-hydroxy-N-methyl-1-[(2S)-3-methyl-2-(4-oxazol-5-yltriazol-1-yl)butanoyl]pyrrolidine-2-carboxamide], in series [1], the pIC50 was 5.49 and the “Ratio cell permeability shift” value is recorded as 1.51. In series [2], this molecule had a pEC50 of 5.67.

In the case of `CNC(=O)[C@@H]1C[C@@H](O)CN1C(=O)[C@H](C(C)C)n1cc(-c2ccccc2)nn1` [Final product from Example S34, (2S,4R)-4-hydroxy-N-methyl-1-((S)-3-methyl-2-(4-phenyl-1H-1,2,3-triazol-1-yl)butanoyl)pyrrolidine-2-carboxamide], in series [1], the pIC50 was 5.86 and the “Ratio cell permeability shift” value was determined as 1.09. Moreover, the pEC50 in series [2] is 5.90.

Turning to `CNC(=O)[C@@H]1C[C@@H](O)CN1C(=O)[C@H](C(C)C)n1cc(-c2ccccn2)nn1` [Final product from Example S35, (2S,4R)-4-hydroxy-N-methyl-1-((S)-3-methyl-2-(4-(pyridin-2-yl)-1H-1,2,3-triazol-1-yl)butanoyl)pyrrolidine-2-carboxamide], in series [1], the pIC50 is 5.77 and the “Ratio cell permeability shift” value turned out to be 0.85. Moreover, in series [2], the pEC50 is 5.70.
